Legend:
corn = assay: Test B pre-/postemergence herbicide test; assay type: in vivo, Zea mays; details: for Corn plant response rating: postemergence, visual rating, scale 0 (no effect) to 100 (complete control)
In short: (§1)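 Test chemicals in a non-phytotoxic solvent mixture with surfactant were applied preemergence to seeded species and postemergence to plants 2-18 cm tall (1- to 4-leaf stage); rice and barnyardgrass were also tested in a flooded paddy at the 2-leaf stage. Visual rating versus controls after 13-15 days in greenhouse, scale 0 (no effect) to 100 (complete control).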

velvetleaf [1] = assay: Test A pre-/postemergence herbicide test; assay type: in vivo, Abutilon theophrasti
In short: (§2)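 Visual injury rating on a 0–100 scale (0 no effect, 100 complete control) versus untreated controls, about ten days after treatment in greenhouse. Pre: directed soil spray onto seeded sandy loam. Post: spray to runoff on plants 2–10 cm tall at one- to two-leaf stage.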

redroot pigweed = assay: Test A pre-/postemergence herbicide test; assay type: in vivo, Amaranthus retroflexus
In short: as §2

lambsquarters = assay: Test B pre-/postemergence herbicide test; assay type: in vivo, Chenopodium album; details: for Lambsquarters plant response rating: postemergence, visual rating, scale 0 (no effect) to 100 (complete control)
In short: as §1

wheat = assay: Test B postemergence herbicide test; assay type: in vivo, Triticum aestivum; set-up: key to Wheat plant response rating: 0 = no effect, 100 = complete control; details: postemergence, visual rating, scale 0 (no effect) to 100 (complete control)
In short: (§3)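 Formulated test chemicals went onto postemergence plants measuring 2 to 18 cm, at one to four leaves. For the paddy assay, species had reached two leaves. Scoring took place 13–15 days later by eye, relative to untreated plants, using 0 for no effect up to 100 for full control.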

rice = assay: Test B flooded paddy test; assay type: in vivo, Oryza sativa; details: 1000 g ai/ha, visual rating, scale 0 to 100 (0 no effect, 100 complete control), 13 to 15 days
In short: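 Paddy species grown to the 2-leaf stage under flooding; blackgrass sprayed postemergence at 2–18 cm (1- to 4-leaf stage). Plants kept in a greenhouse for 13 to 15 days, then visually rated against controls on 0 (no effect) to 100 (complete control).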

wild oat = assay: Test B postemergence herbicide test; assay type: in vivo, Avena fatua; details: postemergence, visual rating, scale 0 (no effect) to 100 (complete control)
In short: as §3

blackgrass = assay: Test B postemergence herbicide test; assay type: in vivo, Alopecurus myosuroides; details: postemergence, visual rating, scale 0 (no effect) to 100 (complete control)
In short: (§4)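 Visual ratings, 0 (no effect) to 100 (complete control), made versus controls after 13–15 d greenhouse. Paddy plants treated at 2-leaf stage; postemergence plants at 1- to 4-leaf stage, 2–18 cm tall.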

large crabgrass [2] = assay: Test A pre-/postemergence herbicide test; assay type: in vivo, Digitaria sanguinalis
In short: as §2

giant foxtail [3] = assay: Test A pre-/postemergence herbicide test; assay type: in vivo, Setaria faberi
In short: as §2

cocklebur = assay: Test B pre-/postemergence herbicide test; assay type: in vivo, Xanthium strumarium; details: for Cocklebur plant response rating: postemergence, visual rating, scale 0 (no effect) to 100 (complete control)
In short: (§5)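 Visual rating, 0 (no effect) to 100 (complete control), versus untreated controls after 13–15 d in greenhouse. Pre- and postemergence applications (postemergence plants 2–18 cm, 1–4 leaves); flooded paddy arm at 2-leaf stage. Compounds in non-phytotoxic solvent plus surfactant.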

velvetleaf [4] = assay: Test B pre-/postemergence herbicide test; assay type: in vivo, Abutilon theophrasti; details: for Velvetleaf plant response rating: postemergence, visual rating, scale 0 (no effect) to 100 (complete control)
In short: as §1

large crabgrass [5] = assay: Test B pre-/postemergence herbicide test; assay type: in vivo, Digitaria sanguinalis; details: for Crabgrass, Large plant response rating: postemergence, visual rating, scale 0 (no effect) to 100 (complete control)
In short: as §1

Surinam grass = assay: Test B pre-/postemergence herbicide test; assay type: in vivo, Urochloa decumbens; details: for Surinam Grass plant response rating: postemergence, visual rating, scale 0 (no effect) to 100 (complete control)
In short: as §1

morningglory [6] = assay: Test A pre-/postemergence herbicide test; assay type: in vivo, Ipomoea spp.
In short: as §2

giant foxtail [7] = assay: Test B pre-/postemergence herbicide test; assay type: in vivo, Setaria faberi; details: for Foxtail, Giant plant response rating: postemergence, visual rating, scale 0 (no effect) to 100 (complete control)
In short: as §1

morningglory [8] = assay: Test B pre-/postemergence herbicide test; assay type: in vivo, Ipomoea coccinea; details: for Morningglory plant response rating: postemergence, visual rating, scale 0 (no effect) to 100 (complete control)
In short: as §5

barnyardgrass [9] = assay: Test B pre-/postemergence herbicide test; assay type: in vivo, Echinochloa crus-galli; details: for Barnyardgrass plant response rating: postemergence, visual rating, scale 0 (no effect) to 100 (complete control)
In short: as §5

barnyardgrass [10] = assay: Test A pre-/postemergence herbicide test; assay type: in vivo, Echinochloa crus-galli
In short: as §2

pigweed = assay: Test B pre-/postemergence herbicide test; assay type: in vivo, Amaranthus retroflexus; details: for Pigweed plant response rating: postemergence, visual rating, scale 0 (no effect) to 100 (complete control)
In short: as §1

[11] = tested on: small flower umbrella sedge; assay: Test B flooded paddy test; assay type: in vivo, Cyperus difformis; details: 1000 g ai/ha, visual rating, scale 0 to 100 (0 no effect, 100 complete control), 13 to 15 days
In short: as §4

ducksalad = assay: Test B flooded paddy test; assay type: in vivo, Heteranthera limosa; details: 1000 g ai/ha, visual rating, scale 0 to 100 (0 no effect, 100 complete control), 13 to 15 days
In short: as §4

barnyardgrass [12] = assay: Test B flooded paddy test; assay type: in vivo, Echinochloa crus-galli; details: 1000 g ai/ha, visual rating, scale 0 to 100 (0 no effect, 100 complete control), 13 to 15 days
In short: as §4

[13] = 125 g ai/ha, 0 = no effect, 100 = complete control, preemergence
[14] = 500 g ai/ha, visual rating 0-100, 0 no effect, 100 complete control, preemergence
[15] = Postemergence, 500 g ai/ha, 0 to 100 scale, 0 no effect, 100 complete control
[16] = Postemergence, 2000 g ai/ha, 0 to 100 scale, 0 no effect, 100 complete control
[17] = Preemergence, 2000 g ai/ha, visual rating, 0 to 100 scale (0 no effect, 100 complete control)
[18] = preemergence, 500 g ai/ha, visual injury, 0 to 100 scale (0 no effect, 100 complete control)

CC(=O)c1cccc(NC(=O)c2cn(C(C)C)nc2C)c1 [Compound 179]
30: Plant response rating, Morningglory (morningglory [6]; [16])
0: Corn plant response rating (0 to 100 scale) (corn; [13]) | Plant response rating, Corn (corn; [14]) | Corn plant response rating (corn; 125 g ai/ha) | Corn plant response rating (corn; 500 g ai/ha) | Velvetleaf plant response rating (velvetleaf [1]; [15]) | Velvetleaf plant response rating (velvetleaf [1]; [17]) | Velvetleaf plant response rating (velvetleaf [1]; [18]) | Pigweed plant response rating (redroot pigweed; [15]) | Pigweed plant response rating (redroot pigweed; [18]) | Lambsquarters plant response rating (0 to 100 scale) (lambsquarters; [13]) | Plant response rating, Lambsquarters (lambsquarters; [14]) | Lambsquarters plant response rating (lambsquarters; 125 g ai/ha) | Lambsquarters plant response rating (lambsquarters; 500 g ai/ha) | Wheat plant response rating (wheat; 125 g ai/ha) | Wheat plant response rating (wheat; 500 g ai/ha) | Rice plant response rating (rice) | Oat, Wild plant response rating (wild oat; 125 g ai/ha) | Oat, Wild plant response rating (wild oat; 500 g ai/ha) | Blackgrass plant response rating (blackgrass; 125 g ai/ha) | Blackgrass plant response rating (blackgrass; 500 g ai/ha) | Crabgrass, Large plant response rating (large crabgrass [2]; [18]) | Foxtail, Giant plant response rating (giant foxtail [3]; [15]) | Foxtail, Giant plant response rating (giant foxtail [3]; [18]) | Cocklebur plant response rating (0 to 100 scale) (cocklebur; [13]) | Plant response rating, Cocklebur (cocklebur; [14]) | Cocklebur plant response rating (cocklebur; 125 g ai/ha) | Cocklebur plant response rating (cocklebur; 500 g ai/ha) | Velvetleaf plant response rating (0 to 100 scale) (velvetleaf [4]; [13]) | Plant response rating, Velvetleaf (velvetleaf [4]; [14]) | Velvetleaf plant response rating (velvetleaf [4]; 125 g ai/ha) | Velvetleaf plant response rating (velvetleaf [4]; 500 g ai/ha) | Crabgrass, Large plant response rating (0 to 100 scale) (large crabgrass [5]; [13]) | Plant response rating, Crabgrass, Large (large crabgrass [5]; [14]) | Crabgrass, Large plant response rating (large crabgrass [5]; 125 g ai/ha) | Crabgrass, Large plant response rating (large crabgrass [5]; 500 g ai/ha) | Surinam Grass plant response rating (0 to 100 scale) (Surinam grass; [13]) | Plant response rating, Surinam Grass (Surinam grass; [14]) | Surinam Grass plant response rating (Surinam grass; 125 g ai/ha) | Surinam Grass plant response rating (Surinam grass; 500 g ai/ha) | Morningglory plant response rating (morningglory [6]; [18]) | Foxtail, Giant plant response rating (0 to 100 scale) (giant foxtail [7]; [13]) | Plant response rating, Foxtail, Giant (giant foxtail [7]; [14]) | Foxtail, Giant plant response rating (giant foxtail [7]; 125 g ai/ha) | Foxtail, Giant plant response rating (giant foxtail [7]; 500 g ai/ha) | Morningglory plant response rating (0 to 100 scale) (morningglory [8]; [13]) | Plant response rating, Morningglory (morningglory [8]; [14]) | Morningglory plant response rating (morningglory [8]; 125 g ai/ha) | Morningglory plant response rating (morningglory [8]; 500 g ai/ha) | Barnyardgrass plant response rating (0 to 100 scale) (barnyardgrass [9]; [13]) | Plant response rating, Barnyardgrass (barnyardgrass [9]; [14]) | Barnyardgrass plant response rating (barnyardgrass [9]; 125 g ai/ha) | Barnyardgrass plant response rating (barnyardgrass [9]; 500 g ai/ha) | Barnyardgrass plant response rating (barnyardgrass [10]; [18]) | Pigweed plant response rating (0 to 100 scale) (pigweed; [13]) | Plant response rating, Pigweed (pigweed; [14]) | Pigweed plant response rating (pigweed; 125 g ai/ha) | Pigweed plant response rating (pigweed; 500 g ai/ha) | Sedge, Umbrella plant response rating [11] | Ducksalad plant response rating (ducksalad) | Barnyardgrass plant response rating (barnyardgrass [12])
5: Plant response rating, Velvetleaf (velvetleaf [1]; [16]) | Morningglory plant response rating (morningglory [6]; [17]) | Barnyardgrass plant response rating (barnyardgrass [10]; [15])
35: Pigweed plant response rating (redroot pigweed; [17])
40: Barnyardgrass plant response rating (barnyardgrass [10]; [17])
10: Plant response rating, Pigweed (redroot pigweed; [16]) | Crabgrass, Large plant response rating (large crabgrass [2]; [15]) | Plant response rating, Crabgrass, Large (large crabgrass [2]; [16]) | Plant response rating, Foxtail, Giant (giant foxtail [3]; [16]) | Foxtail, Giant plant response rating (giant foxtail [3]; [17]) | Morningglory plant response rating (morningglory [6]; [15]) | Plant response rating, Barnyardgrass (barnyardgrass [10]; [16])
50: Crabgrass, Large plant response rating (large crabgrass [2]; [17])
